This is an account of results in US20060079696A1, “Substituted compounds derived from N-(benzyl)phenylacetamide, preparation and uses” (GENFIT, priority 2004, published 2006).

SMILES strings stand for the structures. Where only a bound is given, the exact number is not on record here.

One test concerns hPPARα, hPPARγ, hPPARδ. Briefly: Gal4-hPPAR α/γ/δ transactivation: isoform selectivity and dose dependence. It is filed as cell-based, human. The note with it: 10 μM. How it is done: (§1) The PPAR activation was evaluated in vitro on a monkey kidney fibroblast line (COS-7) by measuring the transcriptional activity of chimeras constituted of the DNA binding domain of the Gal4 transcription factor of yeast and of the binding domain to the ligand of the different PPARs. The compounds were tested at doses between 0.01 and 100 μM on Gal4-PPARα, γ, δ chimeras. The induction factor (ratio between the luminescence induced by the compound and the luminescence induced by the control) was measured for each condition: the higher this factor, the more the compound has PPAR-activating properties.
(§2) The Gal4(RE)_TkpGL3, pGal4-hPPARα, pGal4-hPPARγ, pGal4-hPPARδ and pGal4-φ plasmids have been described in the literature (Raspe, Madsen et al. 1999). The pGal4-hPPARα, pGal4-hPPARγ and pGal4-hPPARδ constructs were obtained by cloning in the pGal4-φ vector of fragments of DNA amplified by PCR corresponding to the DEF domains of the human PPARα, PPARγ PPARδ nuclear receptors.
(§3) COS-7 cells were plated in 96 wells plates (5×10^4 cells/well) and transfected, in the presence of 10% foetal calf serum and 150 ng DNA per well, with a pGal4-PPAR/Gal4(RE)_TkpGL3 ratio of 1/10. The cells were then incubated for 24 hours with the compounds to be tested, without serum. At the end of the experiment, the cells were lysed and the luciferase activities were determined by means of Steady Glow Luciferase (Promega) according to the supplier's recommendations.
The inventive compounds were tested at doses between 0.01 and 100 μM on the 3 PPAR isoforms. The results obtained are detailed in FIGURES (1a), (1b) and (1c): evolution of the transactivation levels according to the dose for the three PPAR sub-types (α, γ, and δ respectively).

The target in another test is T1, hPPARγ (Homo sapiens, UniProt P37231).
T1 construct: fragments of DNA amplified by PCR corresponding to the DEF domains of the human PPARα, PPARγ PPARδ nuclear receptors; expressed in transfected cells; host or cells: COS-7 (monkey kidney fibroblast line)
T1 sequence (P37231 238-503 limits assumed): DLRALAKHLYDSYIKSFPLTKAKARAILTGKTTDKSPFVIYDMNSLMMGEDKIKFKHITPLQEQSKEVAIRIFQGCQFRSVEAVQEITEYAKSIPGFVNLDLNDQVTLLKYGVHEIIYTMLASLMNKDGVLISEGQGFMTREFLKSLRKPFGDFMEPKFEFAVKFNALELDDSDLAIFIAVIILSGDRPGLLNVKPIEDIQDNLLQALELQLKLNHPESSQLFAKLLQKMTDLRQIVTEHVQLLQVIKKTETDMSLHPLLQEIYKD
In words: Gal4-hPPARγ chimera transactivation in COS-7 cells (luciferase). The class given is cell-based. The note with it: induction factor standardised to an internal reference, read-out: % hGal4-PPAR transactivation (10 μM) gamma. As to the method:
as §1
(§4) The COS-7 cells from ATCC were cultivated in a DMEM medium supplemented with 10% (vol/vol) of foetal calf serum, 100 U/ml penicillin (Gibco, Paisley, UK) and 2 mM L-Glutamine (Gibco, Paisley, UK). The cells were incubated at 37° C. in a humid atmosphere containing 5% CO2.
as §2, §3
(§5) The inventive compounds were tested at 10 μM on the 3 PPAR isoforms. The results obtained are detailed in table (1). The transactivation measured is expressed as a response ratio versus an internal reference for each of the isoforms.
(§6) The compounds were tested at 10 μM on the Gal4-PPARα, γ, δ chimeras. The induction factor, i.e. the ratio between the luminescence induced by the compound and the luminescence induced by the control, was measured for each condition. It was then standardised in comparison to an internal reference and the results were then expressed in percentages : the higher the activation percentage, the more the compound has PPAR-activating properties.

For a further test, the target named is T2, hPPARδ (Homo sapiens, UniProt Q03181).
T2 construct: fragments of DNA amplified by PCR corresponding to the DEF domains of the human PPARα, PPARγ PPARδ nuclear receptors; expressed in transfected cells; host or cells: COS-7 (monkey kidney fibroblast line)
T2 sequence (Q03181 211-439 limits assumed): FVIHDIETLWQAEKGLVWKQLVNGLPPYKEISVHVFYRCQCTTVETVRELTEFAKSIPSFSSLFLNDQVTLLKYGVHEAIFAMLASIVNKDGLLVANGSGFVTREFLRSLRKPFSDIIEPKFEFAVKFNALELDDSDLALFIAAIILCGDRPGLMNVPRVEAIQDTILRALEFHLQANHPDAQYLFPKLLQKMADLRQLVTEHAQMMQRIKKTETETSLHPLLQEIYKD
Briefly: Gal4-hPPARδ chimera transactivation in COS-7 cells (luciferase). The note with it: induction factor standardised to an internal reference, read-out: % hGal4-PPAR transactivation (10 μM) delta. It is filed as cell-based. As to the method: as §1, §4, §2, §3, §5, §6

The next test addresses T3, hPPARα (Homo sapiens, UniProt Q07869).
T3 construct: fragments of DNA amplified by PCR corresponding to the DEF domains of the human PPARα, PPARγ PPARδ nuclear receptors; expressed in transfected cells; host or cells: COS-7 (monkey kidney fibroblast line)
T3 sequence (Q07869 239-466 limits assumed): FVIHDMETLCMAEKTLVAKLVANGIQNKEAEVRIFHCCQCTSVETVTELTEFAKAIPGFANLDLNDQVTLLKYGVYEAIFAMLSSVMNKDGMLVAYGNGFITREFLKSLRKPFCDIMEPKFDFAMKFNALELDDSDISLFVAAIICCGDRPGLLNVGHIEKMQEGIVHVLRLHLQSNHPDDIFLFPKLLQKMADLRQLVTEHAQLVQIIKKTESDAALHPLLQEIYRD
Briefly: Gal4-hPPARα chimera transactivation in COS-7 cells (luciferase). To be noted: induction factor standardised to an internal reference, read-out: % hGal4-PPAR transactivation (10 μM) alpha. It is filed as cell-based. How it is done: as §1, §4, §2, §3, §5, §6

Test [1] deals with T4, ATP-dependent potassium channels (K+ATP) (Rattus norvegicus, UniProt Q09429).
T4 construct: the potassium channels derive from a rat's cerebral cortex; tissue CEREP; host or cells: rat cerebral cortex
Briefly: [3H]glibenclamide binding to ATP-dependent potassium channels of rat cerebral cortex. The note with it: 1 h; 300 nM; specific displacement of [3H]glibenclamide 0.1 nM; read-out: KATP binding (300 nM). As to the method: The results shown reflect the specific affinity of the inventive compounds on the ATP-dependent (K^+ATP) potassium channels. The specific binding measured corresponds to the difference between the total binding and the non-specific binding determined in the presence of an excess of non-marked reference ligand (glibenclamide 1 μM). The inventive compounds were tested at doses between 3 and 300 nM: the higher the percentage measured, the stronger the affinity of the compound for the ATP-dependent potassium channels.
The binding test was carried out at CEREP (Celle L'Evescault, France (86)) according to a protocol inspired by Angel et al. (Angel and Bidet 1991): the potassium channels derive from a rat's cerebral cortex and the reference compound is [^3H]glibenclamide at 0.1 nM. The protocol consists of incubation at 22° C. for one hour.

T4 sequence (Q09429 whole entry): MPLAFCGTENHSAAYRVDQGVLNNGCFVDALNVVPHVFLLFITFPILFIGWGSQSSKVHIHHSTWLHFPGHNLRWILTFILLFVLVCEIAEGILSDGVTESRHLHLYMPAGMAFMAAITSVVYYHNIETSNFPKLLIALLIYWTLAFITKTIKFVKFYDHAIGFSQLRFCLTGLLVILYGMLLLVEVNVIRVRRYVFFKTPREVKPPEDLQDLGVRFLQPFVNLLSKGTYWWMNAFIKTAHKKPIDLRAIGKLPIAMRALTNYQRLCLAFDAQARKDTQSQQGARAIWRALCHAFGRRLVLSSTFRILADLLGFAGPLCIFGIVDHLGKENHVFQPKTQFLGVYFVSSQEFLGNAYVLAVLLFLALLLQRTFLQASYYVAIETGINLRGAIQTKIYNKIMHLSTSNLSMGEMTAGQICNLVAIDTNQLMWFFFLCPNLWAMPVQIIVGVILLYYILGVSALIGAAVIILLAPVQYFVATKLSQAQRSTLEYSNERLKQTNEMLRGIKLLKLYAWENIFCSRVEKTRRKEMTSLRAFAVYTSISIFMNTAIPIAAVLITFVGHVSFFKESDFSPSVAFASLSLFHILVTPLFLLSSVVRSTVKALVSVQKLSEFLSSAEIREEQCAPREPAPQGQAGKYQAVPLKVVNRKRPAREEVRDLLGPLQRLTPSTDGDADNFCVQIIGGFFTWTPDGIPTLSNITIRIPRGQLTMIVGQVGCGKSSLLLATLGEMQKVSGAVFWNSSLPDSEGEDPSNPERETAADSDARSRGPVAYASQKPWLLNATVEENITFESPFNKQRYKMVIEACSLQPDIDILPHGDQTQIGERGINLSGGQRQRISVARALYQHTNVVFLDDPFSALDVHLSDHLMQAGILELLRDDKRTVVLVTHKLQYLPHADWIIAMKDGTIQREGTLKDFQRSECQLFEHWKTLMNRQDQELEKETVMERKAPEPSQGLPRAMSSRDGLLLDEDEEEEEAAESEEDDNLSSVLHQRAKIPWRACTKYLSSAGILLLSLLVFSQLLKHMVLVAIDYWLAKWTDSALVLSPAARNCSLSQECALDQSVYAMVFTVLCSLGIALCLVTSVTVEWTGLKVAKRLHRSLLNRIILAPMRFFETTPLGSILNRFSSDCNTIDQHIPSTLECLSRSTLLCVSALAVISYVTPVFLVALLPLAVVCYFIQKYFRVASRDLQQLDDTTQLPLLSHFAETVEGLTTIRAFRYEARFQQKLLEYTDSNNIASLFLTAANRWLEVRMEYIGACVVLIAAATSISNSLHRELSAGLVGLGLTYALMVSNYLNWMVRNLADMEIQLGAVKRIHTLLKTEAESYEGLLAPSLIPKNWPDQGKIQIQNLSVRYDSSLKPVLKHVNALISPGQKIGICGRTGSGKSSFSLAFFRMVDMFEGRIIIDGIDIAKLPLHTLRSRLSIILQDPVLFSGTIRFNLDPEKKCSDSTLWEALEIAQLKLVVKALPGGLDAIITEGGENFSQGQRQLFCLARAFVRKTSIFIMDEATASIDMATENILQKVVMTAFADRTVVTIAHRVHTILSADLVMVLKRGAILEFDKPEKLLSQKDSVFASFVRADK
T4 sequence (P70673 whole entry partner): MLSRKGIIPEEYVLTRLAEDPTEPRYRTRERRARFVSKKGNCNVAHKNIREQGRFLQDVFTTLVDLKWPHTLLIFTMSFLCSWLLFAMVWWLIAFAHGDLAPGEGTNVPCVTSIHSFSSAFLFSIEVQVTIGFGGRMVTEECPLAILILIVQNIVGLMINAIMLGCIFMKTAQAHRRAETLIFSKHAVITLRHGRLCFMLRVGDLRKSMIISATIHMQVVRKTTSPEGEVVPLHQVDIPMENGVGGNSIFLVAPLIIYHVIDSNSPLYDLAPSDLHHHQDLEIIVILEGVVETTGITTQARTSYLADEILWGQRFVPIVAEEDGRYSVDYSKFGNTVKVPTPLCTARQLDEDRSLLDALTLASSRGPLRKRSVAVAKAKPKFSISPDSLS

On to `CC(C)(Oc1ccc(CC(=O)NC(CC2CCCCC2)c2ccccc2N2CCCCC2)cc1)C(=O)O` (centres unmarked) [Compound 19, 2-[4-[1-(2-cyclohexyl-1-(2-(1-piperidinyl)phenyl)ethyl)aminocarbonylmethyl]phenoxy]-2-methylpropanoic acid], for which, in the test on hPPARα, hPPARγ, hPPARδ, the “selectivity with respect to PPAR isoforms” value (“selectivity” below) is “activates neither hPPARα nor hPPARδ”. Also, the activation at 10 µM was 95% on hPPARγ, less than 10% at hPPARδ and less than 10% on hPPARα.

As for `CCCCC(NC(=O)Cc1ccc(OC(C)(C)C(=O)O)cc1)c1ccccc1Sc1ccccc1` (centres unmarked) [Compound 36, 2-[4-[1-(1-(2-(phenylthio)phenyl)pentyl)aminocarbonylmethyl]phenoxy]-2-methylpropanoic acid], the “selectivity” value in the test on hPPARα, hPPARγ, hPPARδ is “activates hPPARα and hPPARγ, but not hPPARδ”. Also, the activation at 10 µM on hPPARγ was 73%; on hPPARδ it was less than 10%; on hPPARα it was 54%. Also, in test [1], the inhibition at 0.3 µM was 45%.

As for `CC(C)CC(NC(=O)Cc1ccc(OC(C)(C)C(=O)O)cc1)c1ccc(-c2ccccc2)cc1N1CCCCC1` (centres unmarked) [Compound 39, 2-[4-[1-(3-methyl-1-(2-(1-piperidinyl)-4-(phenyl)phenyl)butyl)aminocarbonylmethyl]phenoxy]-2-methylpropanoic acid], the “selectivity” value with hPPARα, hPPARγ, hPPARδ was “ligand of hPPARα, hPPARγ and hPPARδ”. In addition, the activation at 10 µM came to 29% at hPPARγ, 24% on hPPARδ and 16% on hPPARα.

`CCCCC(NC(=O)Cc1ccc(OC(C)(C)C(=O)O)cc1)c1ccc(-n2cccc2)cc1N1CCCCC1` (centres unmarked) [Compound 49, 2-[4-[1-(1-(2-(1-piperidinyl)-4-(1H-pyrrolyl)phenyl)pentyl)aminocarbonylmethyl]phenoxy]-2-methylpropanoic acid]: the “selectivity” value with hPPARα, hPPARγ, hPPARδ was “activates hPPARγ and hPPARδ, but not hPPARα”. Also, the activation at 10 µM was 87% at hPPARγ, 57% at hPPARδ and less than 10% at hPPARα.

Turning to `CCCCC(NC(=O)Cc1ccc(OC(C)(C)C(=O)NS(=O)(=O)C(F)(F)F)cc1)c1ccccc1N1CCCCC1` (centres unmarked) [Compound 60, N-[trifluoromethylsulfonyl]-2-[4-[1-(1-(2-(1-piperidinyl)phenyl)pentyl)aminocarbonylmethyl]phenoxy]-2-methylpropanamide], in the test on hPPARα, hPPARγ, hPPARδ, the “selectivity” value is “hPPARα selective”. The results for the activation at 10 µM on hPPARγ, on hPPARδ and on hPPARα were less than 10%, less than 10% and 46%, respectively. Besides, the inhibition at 0.3 µM in test [1] worked out at 49%.

As to `CCCCC(NC(=O)Cc1ccc(OC(C)(C)C(=O)NS(=O)(=O)c2ccccc2)cc1)c1ccccc1N1CCCCC1` (centres unmarked) [Compound 61, N-[phenylsulfonyl]-2-[4-[1-(1-(2-(1-piperidinyl)phenyl)pentyl)aminocarbonylmethyl]phenoxy]-2-methylpropanamide], the activation at 10 µM on hPPARγ was less than 10%; on hPPARδ it was less than 10%; at hPPARα it was 20%. Further, in test [1], the inhibition at 0.3 µM stood at 23%.

Take `CCCCC(NC(=O)Cc1ccc(OC(C)(C)C(=O)NS(=O)(=O)Cc2ccccc2)cc1)c1ccccc1N1CCCCC1` (centres unmarked) [Compound 63, N-[benzylsulfonyl]-2-[4-[1-(1-(2-(1-piperidinyl)phenyl)pentyl)aminocarbonylmethyl]phenoxy]-2-methylpropanamide]: the activation at 10 µM at hPPARγ is less than 10%; on hPPARδ it was less than 10%; at hPPARα it was 26%. The inhibition at 0.3 µM in test [1] amounted to 67%.

With `CC(C)CC(NC(=O)Cc1ccc(OC(C)(C)C(=O)NS(=O)(=O)c2ccccc2)cc1)c1ccccc1N1CCCCC1` (centres unmarked) [Compound 64, N-[phenylsulfonyl]-2-[4-[1-(3-methyl-1-(2-(1-piperidinyl)phenyl)butyl)aminocarbonylmethyl]phenoxy]-2-methylpropanamide], the results for the activation at 10 µM on hPPARγ, on hPPARδ and on hPPARα were 18%, less than 10% and less than 10%, respectively. Besides, the inhibition at 0.3 µM in test [1] was 57%.

`CCCC(NC(=O)Cc1ccc(OC(C)(C)C(=O)O)cc1)c1ccccc1N1CCCCC1` (centres unmarked) [Compound 65, 2-[4-[1-(1-(2-(1-piperidinyl)phenyl)butyl)aminocarbonylmethyl]phenoxy]-2-methylpropanoic acid]: the activation at 10 µM at hPPARγ is 50%; at hPPARδ, less than 10%; at hPPARα it was less than 10%. Moreover, in test [1], the inhibition at 0.3 µM is 90%.
